According to patent EP0554400B1, “RETROVIRAL PROTEASE INHIBITORS” (MONSANTO COMPANY, priority 1990, dated 1992):

Assays:
[1] = target: T1, HIV protease (Human immunodeficiency virus type 1 group M subtype B, UniProt P04585); assay: HIV protease enzyme assay (fluorogenic substrate 2-aminobenzoyl-Ile-Nle-Phe(p-NO2)-Gln-ArgNH2); format: biochemical
T1 construct: HIV protease is diluted in the assay buffer to a final enzyme concentration of 12.3 nanomolar, based on a molecular weight of 10,780
Description: The compounds of the present invention are effective HIV protease inhibitors. Utilizing an enzyme assay as described below, the compounds set forth in the examples herein disclosed inhibited the HIV enzyme. The preferred compounds of the present invention and their calculated IC50 (inhibiting concentration 50%, i.e., the concentration at which the inhibitor compound reduces enzyme activity by 50%) values are shown in Table 6. The enzyme method is described below. The substrate is 2-aminobenzoyl-Ile-Nle-Phe(p-NO2)-Gln-ArgNH2. The positive control is MVT-101 (Miller, M. et al, Science, 246, 1149 (1989)] The assay conditions are as follows: Assay buffer: • 20 mM sodium phosphate, pH 6.4 • 20% glycerol • 1 mM EDTA • 1 mM DTT • 0.1% CHAPS
The above described substrate is dissolved in DMSO, then diluted 10 fold in assay buffer. Final substrate concentration in the assay is 80 µM.
HIV protease is diluted in the assay buffer to a final enzyme concentration of 12.3 nanomolar, based on a molecular weight of 10,780.
The final concentration of DMSO is 14% and the final concentration of glycerol is 18%. The test compound is dissolved in DMSO and diluted in DMSO to 10x the test concentration; 10 µl of the enzyme preparation is added, the materials mixed and then the mixture is incubated at ambient temperature for 15 minutes. The enzyme reaction is initiated by the addition of 40µl of substrate. The increase in fluorescence is monitored at 4 time points (0, 8, 16 and 24 minutes) at ambient temperature. Each assay is carried out in duplicate wells.

[2] = system: HIV-1; assay: HIV inhibition assay of acutely infected CEM cells (tetrazolium/MTT colorimetric); format: cell-based; details: Table 7, CEM cells acutely infected with HIV-1, 7 days, MTT
Method: The effectiveness of the compounds listed in Table 7 were determined in the above-described enzyme assay and in a CEM cell assay.
(§1) Methods 20, 309-321 (1988).

[3] = system: CEM cells; assay: Intrinsic toxicity of test compound in uninfected CEM cells (MTT); format: cell-based; details: Table 7, CEM cells without virus, 7 days, read-out: TD50 (the source's name)
Description: as §1

[4] = Table 6, 80 µM substrate, 12.3 nanomolar enzyme, pH 6.4
[5] = Table 7, above-described enzyme assay

Compound	IC50 [1, 4] [nM]	IC50 [1, 5] [nM]	EC50 ([2]; Human immunodeficiency virus 1, CCRF-CEM, 168 h) [µM]	EC50 [2] [µM]	CC50 [3] [µM]
CC(C)CCN(C[C@@H](O)[C@H](Cc1ccccc1)NC(=O)OCc1ccccc1)C(=O)NC(C)(C)C (relative stereo) [Carbamic acid, [3-[[[(1,1-dimethylethyl)amino]carbonyl](3-methylbutyl)amino]-2-hydroxy-1-(phenylmethyl)propyl]-, phenylmethyl ester, [1S-[1R*,2S*]]]	112	–	–	–	–
Phenylmethylamide, N-[3-[[[(1,1-dimethylethyl)amino]carbonyl](3-methylbutyl)amino]-2-hydroxy-1-(phenylmethyl)propyl]-3,3-dimethyl-, [1S-[1R*,2S*]]	850	850	–	–	–
COc1ccc(COC(=O)N[C@@H](Cc2ccccc2)[C@H](O)CN(CCC(C)C)C(=O)NC(C)(C)C)cc1 (relative stereo) [Carbamic acid, [3-[[[(1,1-dimethylethyl)amino]carbonyl](3-methylbutyl)amino]-2-hydroxy-1-(phenylmethyl)propyl]-, (4-methoxyphenyl)methyl ester, [1S-[1R*,2S*]]]	489	–	0.82	–	–
CC(C)C[C@H](NC(=O)[C@@H](N)Cc1ccccc1)C(=O)NC(=O)NC[C@H](O)[C@H](Cc1ccccc1)NC(=O)OC(C)(C)C [(2S,3S)-3-(N-1,1-dimethylethoxycarbonyl)amido-1-(L-phenylalanyl-L-leucylcarbamoyl)amino-4-phenyl butanol]	5000	5000	–	13	54
